Values after ≈ are worked out from the molar mass of the structure shown. Read-outs that look alike come from different tables or passages of the source.
Tests used:
Assay in all cases: In vitro antibacterial activity, microtitration dilution method (MIC)
Format in all cases: cell-based
[1] = tested on: Enterobacter cloacae MA 2646
Description: (§1) The compounds of the invention display antibacterial activity when tested by the microtitration dilution method as described in Heifetz, et al, Antimicr. Agents & Chemoth., 6, 124 (1974), which is incorporated herein by reference. By use of this method, the followed minimum inhibitory concentration values (MICs in μg/mL) were obtained for representative compounds of the invention.

Escherichia coli Vogel = conditions: read-out: Minimal Inhibitory Concentration MIC
Description: as §1

[2] = tested on: Staphylococcus aureus H 228; conditions: H228; Staphylococcus aureus H 228, microtitration dilution; read-out: Minimal Inhibitory Concentration MIC
Description: as §1

[3] = tested on: Streptococcus pyogenes C-203; conditions: C203; Streptococcus pyogenes C-203, microtitration dilution; read-out: Minimal Inhibitory Concentration MIC
Description: as §1

[4] = tested on: Klebsiella pneumoniae MGH-2; conditions: MGH2; Klebsiella pneumoniae MGH-2, microtitration dilution; read-out: Minimal Inhibitory Concentration MIC
Description: (§2) Agents & Chemoth., 6, 124 (1974), which is incorporated herein by reference.

Proteus rettgeri M 1771 = conditions: Providencia rettgeri, M1771; Proteus rettgeri M 1771, microtitration dilution; read-out: Minimal Inhibitory Concentration MIC
Description: as §2

[5] = tested on: Pseudomonas aeruginosa UI-18; conditions: UI18; Pseudomonas aeruginosa UI-18, microtitration dilution; read-out: Minimal Inhibitory Concentration MIC
Description: as §2

[6] = tested on: Staphylococcus aureus UC-76
Description: as §2

[7] = tested on: Streptococcus faecalis MGH-2; conditions: Enterococcus faecalis
Description: as §2

[8] = tested on: Streptococcus pneumoniae SV-1
Description: as §2

[9] = MA2646, Enterobacter cloacae MA 2646, microtitration dilution, read-out: Minimal Inhibitory Concentration MIC
[10] = Escherichia coli Vogel, microtitration dilution
[11] = UC76, Staphylococcus aureus UC-76, microtitration dilution, read-out: Minimal Inhibitory Concentration MIC
[12] = MGH2, Streptococcus faecalis MGH-2, microtitration dilution, read-out: Minimal Inhibitory Concentration MIC
[13] = SV1, Streptococcus pneumoniae SV-1, microtitration dilution, read-out: Minimal Inhibitory Concentration MIC
[14] = Enterobacter cloacae, MA2646, read-out: Minimal Inhibitory Concentration MIC

MIC [1, 9] [µg/mL] | SMILES | MIC (Escherichia coli Vogel; [10]) [µg/mL] | MIC [2] [µg/mL] | MIC [3] [µg/mL] | MIC [4] [µg/mL] | MIC (Proteus rettgeri M 1771) [µg/mL] | MIC [5] [µg/mL] | MIC [6, 11] [µg/mL] | MIC [7, 12] [µg/mL] | MIC [8, 13] [µg/mL] | MIC [1, 14] [µg/mL] | MIC (Escherichia coli Vogel; Escherichia coli) [µg/mL] | MIC ([6]; Staphylococcus aureus, UC76, read-out: Minimal Inhibitory Concentration MIC) [µg/mL] | MIC ([7]; MGH2, read-out: Minimal Inhibitory Concentration MIC) [µg/mL] | MIC ([8]; Streptococcus pneumoniae, SV1, read-out: Minimal Inhibitory Concentration MIC) [µg/mL]
0.025 (≈ 0.0696 µM) | Cc1c(F)c(N2CCNC(C)C2)cc2c1c(=O)c(C(=O)O)cn2C1CC1 (centres unmarked) [Ex. 7, 1-Cyclopropyl-6-fluoro-1,4-dihydro-5-methyl-7-(3-methyl-1-piperazinyl)-4-oxo-3-quinolinecarboxylic acid] | 0.013 (≈ 0.0362 µM) | 0.1 (≈ 0.278 µM) | 0.05 (≈ 0.139 µM) | 0.05 (≈ 0.139 µM) | 0.2 (≈ 0.556 µM) | 0.8 (≈ 2.23 µM) | 0.025 (≈ 0.0696 µM) | 0.1 (≈ 0.278 µM) | 0.025 (≈ 0.0696 µM) |  |  |  |  | 
 | Cc1c(F)c(N2CCC(N)C2)cc2c1c(=O)c(C(=O)O)cn2C1CC1 (centres unmarked) [Ex. 8, 7-(3-Amino-1-pyrrolidinyl)-1-cyclopropyl-6-fluoro-1,4-dihydro-5-methyl-4-oxo-3-quinolinecarboxylic acid] | 0.025 (≈ 0.0724 µM) | 0.1 (≈ 0.29 µM) | 0.025 (≈ 0.0724 µM) | 0.1 (≈ 0.29 µM) | 0.1 (≈ 0.29 µM) | 0.4 (≈ 1.16 µM) | 0.025 (≈ 0.0724 µM) | 0.4 (≈ 1.16 µM) | 0.013 (≈ 0.0376 µM) | 0.05 (≈ 0.145 µM) |  |  |  | 
0.1 (≈ 0.268 µM) | Cc1c(F)c(N2CCC(C)(CN)C2)cc2c1c(=O)c(C(=O)O)cn2C1CC1 (centres unmarked) [Ex. 9, 7-[3-(Aminomethyl)-3-methyl-1-pyrrolidinyl]-1-cyclopropyl-6-fluoro-1,4-dihydro-5-methyl-4-oxo-3-quinolinecarboxylic acid] | 0.1 (≈ 0.268 µM) | 0.025 (≈ 0.0669 µM) | 0.013 (≈ 0.0348 µM) | 0.4 (≈ 1.07 µM) | 0.8 (≈ 2.14 µM) | 1.6 (≈ 4.28 µM) | 0.006 (≈ 0.0161 µM) | 0.1 (≈ 0.268 µM) | 0.006 (≈ 0.0161 µM) |  |  |  |  | 
 | Cc1c(F)c(N2CCNCC2)c(Cl)c2c1c(=O)c(C(=O)O)cn2C1CC1 [Ex. 10, 8-Chloro-1-cyclopropyl-6-fluoro-1,4-dihydro-5-methyl-4-oxo-7-(1-piperazinyl)-3-quinolinecarboxylic acid] | 0.025 (≈ 0.0658 µM) | 0.05 (≈ 0.132 µM) | 0.2 (≈ 0.527 µM) | 0.1 (≈ 0.263 µM) | 0.2 (≈ 0.527 µM) | 0.2 (≈ 0.527 µM) | 0.025 (≈ 0.0658 µM) | 0.2 (≈ 0.527 µM) | 0.1 (≈ 0.263 µM) | 0.05 (≈ 0.132 µM) |  |  |  | 
 | Cc1c(F)c(N2CCC(N)C2)c(Cl)c2c1c(=O)c(C(=O)O)cn2C1CC1 (centres unmarked) [Ex. 11, 7-(3-Amino-1-pyrrolidinyl)-8-chloro-1-cyclopropyl-6-fluoro-1,4-dihydro-5-methyl-4-oxo-3-quinolinecarboxylic acid] | 0.013 (≈ 0.0342 µM) | 0.025 (≈ 0.0658 µM) | 0.05 (≈ 0.132 µM) | 0.05 (≈ 0.132 µM) | 0.05 (≈ 0.132 µM) | 0.2 (≈ 0.527 µM) | 0.013 (≈ 0.0342 µM) | 0.05 (≈ 0.132 µM) | 0.025 (≈ 0.0658 µM) | 0.05 (≈ 0.132 µM) |  |  |  | 
 | CCn1cc(C(=O)O)c(=O)c2c(C)c(F)c(N3CCNCC3)c(F)c21 [Ex. 12, 1-Ethyl-6,8-difluoro-1,4-dihydro-5-methyl-4-oxo-7-(1-piperazinyl)-3-quinolinecarboxylic acid] |  | 0.8 (≈ 2.28 µM) | 12.5 (≈ 35.6 µM) | 0.2 (≈ 0.569 µM) | 0.4 (≈ 1.14 µM) | 1.6 (≈ 4.55 µM) |  | 3.1 (≈ 8.82 µM) | 6.3 (≈ 17.9 µM) | 0.05 (≈ 0.142 µM) | 0.05 (≈ 0.142 µM) | 0.2 (≈ 0.569 µM) |  | 
 | CCn1cc(C(=O)O)c(=O)c2c(C)c(F)c(N3CCC(N)C3)c(F)c21 (centres unmarked) [Ex. 13, 7-(3-Amino-1-pyrrolidinyl)-1-ethyl-6,8-difluoro-1,4-dihydro-5-methyl-4-oxo-3-quinolinecarboxylic acid] | 0.05 (≈ 0.142 µM) | 0.4 (≈ 1.14 µM) | 3.1 (≈ 8.82 µM) | 0.2 (≈ 0.569 µM) | 0.4 (≈ 1.14 µM) | 1.6 (≈ 4.55 µM) | 0.1 (≈ 0.285 µM) |  |  | 0.05 (≈ 0.142 µM) |  |  | 0.8 (≈ 2.28 µM) | 1.6 (≈ 4.55 µM)
0.1 (≈ 0.23 µM) | Cc1c(F)c(N2CCNCC2)c(F)c2c1c(=O)c(C(=O)O)cn2-c1ccc(F)cc1F [Ex. 14, 6,8-Difluoro-1-(2,4-difluorophenyl)-1,4-dihydro-5-methyl-4-oxo-7-(1-piperazinyl)-3-quinolinecarboxylic acid] | 0.05 (≈ 0.115 µM) | 0.2 (≈ 0.459 µM) | 0.4 (≈ 0.919 µM) | 0.4 (≈ 0.919 µM) | 0.4 (≈ 0.919 µM) | 0.8 (≈ 1.84 µM) | 0.05 (≈ 0.115 µM) | 0.4 (≈ 0.919 µM) | 0.4 (≈ 0.919 µM) |  |  |  |  | 

Reference: patent publication US5585491A, “Antibacterial agents” (Otsuka Pharmaceutical Co., Ltd., priority 1995, dated 1996)
